PMC6102747 (Molecular Medicine Reports, 2018)
Read-outs that look alike come from different tables or passages of the source.

Experiments:
Assay type in all cases: in vivo, rats
Bcrp [1] = test: RT-qPCR mRNA expression in small intestine and liver; details: vs control
Pxr = details: vs control
Sult1a1 [2] = test: Western blot protein expression in small intestine and liver; details: vs control
Ugt1a1 = test: as above; details: vs control, P<0.001
Sult1a1 [3] = test: RT-qPCR mRNA expression in small intestine and liver; details: vs control
Cyp3a1 = test: as above; details: vs control
OATP1B2 = test: Western blot protein expression in liver; details: vs control
P-gp = test: Western blot protein expression in small intestine and liver; details: vs control
Slco1b2 = test: RT-qPCR mRNA expression in liver; details: vs control
Bcrp [4] = test: Western blot protein expression in small intestine and liver; details: vs control
[5] = liver, low-dose Q3GA 2.5 mg/kg i.v. 7 days, P<0.01
[6] = small intestine, high-dose Q3GA 10 mg/kg i.v. 7 days, P<0.01
[7] = small intestine, low-dose Q3GA 2.5 mg/kg i.v. 7 days, P<0.001
[8] = small intestine, middle-dose Q3GA 5 mg/kg i.v. 7 days, P<0.05
[9] = small intestine, high-dose Q3GA 10 mg/kg i.v. 7 days, P<0.001
[10] = liver, high-dose Q3GA 10 mg/kg i.v. 7 days
[11] = small intestine, middle-dose Q3GA 5 mg/kg i.v. 7 days
[12] = liver, low-dose Q3GA 2.5 mg/kg i.v. 7 days, P<0.001
[13] = liver, middle-dose Q3GA 5 mg/kg i.v. 7 days, P<0.05
[14] = liver, high-dose Q3GA 10 mg/kg i.v. 7 days, P<0.05

## O=c1c(O[C@@H]2O[C@H](CO)[C@@H](O)[C@H](O)[C@H]2O)c(-c2ccc(O)c(O)c2)oc2cc(O)cc(O)c12 [Q3GA, Quercetin-3-O-β-D-glucoside]
Bcrp [1]; liver, high-dose Q3GA 10 mg/kg i.v. 7 days, not significant
  decrease in Bcrp mRNA expression: 29.23%
Bcrp [1]; [5]
  decrease in Bcrp mRNA expression: 56.15%
Bcrp [1]; liver, middle-dose Q3GA 5 mg/kg i.v. 7 days, not significant
  decrease in Bcrp mRNA expression: 29.23%
Bcrp [1]; [6]
  decrease in Bcrp mRNA expression: 43.68%
Bcrp [1]; [7]
  decrease in Bcrp mRNA expression: 63.83%
Bcrp [1]; [8]
  decrease in Bcrp mRNA expression: 27.52%
Pxr; [5]
  increase in PXR protein expression: 182.93%
Pxr; [6]
  increase in PXR protein expression: 147.68%
Pxr; [7]
  increase in PXR protein expression: 258.85%
Pxr; [8]
  increase in PXR protein expression: 81.66%
Sult1a1 [2]; [5]
  decrease in SULT1A1 protein expression: 75.89%
Sult1a1 [2]; [9]
  decrease in SULT1A1 protein expression: 57.47%
Sult1a1 [2]; [7]
  decrease in SULT1A1 protein expression: 75.44%
Sult1a1 [2]; [8]
  decrease in SULT1A1 protein expression: 36.33%
Ugt1a1; [10]
  decrease in UGT1A1 protein expression: 49.63%
Ugt1a1; liver, low-dose Q3GA 2.5 mg/kg i.v. 7 days
  decrease in UGT1A1 protein expression: 71.06%
Ugt1a1; liver, middle-dose Q3GA 5 mg/kg i.v. 7 days
  decrease in UGT1A1 protein expression: 38.05%
Ugt1a1; small intestine, high-dose Q3GA 10 mg/kg i.v. 7 days
  decrease in UGT1A1 protein expression: 46.57%
Ugt1a1; small intestine, low-dose Q3GA 2.5 mg/kg i.v. 7 days
  decrease in UGT1A1 protein expression: 76.81%
Ugt1a1; [11]
  decrease in UGT1A1 protein expression: 36.26%
Sult1a1 [3]; [10]
  decrease in Sult1a1 mRNA expression: 18.39%
Sult1a1 [3]; [12]
  decrease in Sult1a1 mRNA expression: 58.06%
Sult1a1 [3]; [13]
  decrease in Sult1a1 mRNA expression: 31.94%
Sult1a1 [3]; [6]
  decrease in Sult1a1 mRNA expression: 52.02%
Sult1a1 [3]; [7]
  decrease in Sult1a1 mRNA expression: 64.54%
Sult1a1 [3]; [8]
  decrease in Sult1a1 mRNA expression: 33.80%
Cyp3a1; [14]
  decrease in Cyp3a1 mRNA expression: 33.73%
Cyp3a1; [12]
  decrease in Cyp3a1 mRNA expression: 65.14%
Cyp3a1; liver, middle-dose Q3GA 5 mg/kg i.v. 7 days, P<0.001
  decrease in Cyp3a1 mRNA expression: 54.94%
Cyp3a1; small intestine, high-dose Q3GA 10 mg/kg i.v. 7 days, P<0.05
  decrease in Cyp3a1 mRNA expression: 43.57%
Cyp3a1; [7]
  decrease in Cyp3a1 mRNA expression: 63.78%
Cyp3a1; [11]
  decrease in Cyp3a1 mRNA expression: 26.08%
OATP1B2; high-dose Q3GA 10 mg/kg i.v. 7 days
  decrease in OATP1B2 protein expression: 33.73%
OATP1B2; low-dose Q3GA 2.5 mg/kg i.v. 7 days, P<0.01
  decrease in OATP1B2 protein expression: 67.47%
OATP1B2; middle-dose Q3GA 5 mg/kg i.v. 7 days
  decrease in OATP1B2 protein expression: 26.52%
P-gp; liver, high-dose Q3GA 10 mg/kg i.v. 7 days, P<0.001
  decrease in P-gp protein expression: 47.26%
P-gp; [12]
  decrease in P-gp protein expression: 67.93%
P-gp; liver, middle-dose Q3GA 5 mg/kg i.v. 7 days, P<0.01
  decrease in P-gp protein expression: 39.92%
P-gp; [9]
  decrease in P-gp protein expression: 41.70%
P-gp; [7]
  decrease in P-gp protein expression: 65.31%
P-gp; small intestine, middle-dose Q3GA 5 mg/kg i.v. 7 days, P<0.01
  decrease in P-gp protein expression: 30.22%
Slco1b2; high-dose Q3GA 10 mg/kg i.v. 7 days, P<0.001
  decrease in Slco1b2 mRNA expression: 53.54%
Slco1b2; low-dose Q3GA 2.5 mg/kg i.v. 7 days, P<0.001
  decrease in Slco1b2 mRNA expression: 68.06%
Slco1b2; middle-dose Q3GA 5 mg/kg i.v. 7 days, P<0.01
  decrease in Slco1b2 mRNA expression: 38.39%
Bcrp [4]; [14]
  decrease in BCRP protein expression: 30.86%
Bcrp [4]; [12]
  decrease in BCRP protein expression: 69.78%
Bcrp [4]; [13]
  decrease in BCRP protein expression: 27.73%
Bcrp [4]; [6]
  decrease in BCRP protein expression: 36.44%
Bcrp [4]; [7]
  decrease in BCRP protein expression: 70.61%
Bcrp [4]; [8]
  decrease in BCRP protein expression: 32.93%
